Experimental data as given in patent US20240165055A1, “TREATMENT” (Verona Pharma PLC, priority 2022, published 2024).

Test system: patients with moderate to severe COPD
Experiment: Multi-centre, randomized, double-blind, placebo-controlled clinical study of nebulised ensifentrine in COPD (spirometry, FEV1)
Assay type: in vivo
Conditions: 3 mg BID by nebuliser
Procedure: A clinical study was conducted to determine the efficacy of ensifentrine in treating COPD compared with placebo. Ensifentrine was administered by nebuliser at a dose of 3 mg twice daily (BID) for 24 weeks. The study was a multi-centre, randomized, double-blind, parallel-group, placebo-controlled trial with around 800 patients and 5:3 randomization.
The study population included patients aged 40-80 years with moderate to severe COPD (FEV130%-70% p.n., FEVi/forced vital capacity [FVC] ratio <0.7, with mMRC ≥2). The randomization stratified (a) the use of stable background maintenance LAMA or LABA therapy use (approx. 50%. yes or no) and (b) cigarette smoking (current or former). Inhaled corticosteroid (ICS) maintenance therapy was permitted in up to 20% of patients under certain provisions.
The primary endpoint of the study was change from baseline in average FEV1 area under the curve (AUC)0-12h post-dose at week 12. Secondary endpoints of the study included: peak FEV1 over 4 hours post-dose at Week 12; morning trough FEV1 at Week 12; and other endpoints including moderate/severe COPD exacerbations frequency over 24 Weeks.
Baseline FEV1 is the mean of the two measurements taken before study medication on the day of first dosing, i.e. ≤40 minutes and just prior to dosing, pre-dose on day 1.
Average FEV1 AUCO-12h is defined as area under the curve over 12 hours of the FEV1, divided by 12 hours.
Morning trough FEV1 at Week 12 is defined as the FEVi assessed at 11.5 to 12 hours following the prior evening dose.
The investigational product and placebo were provided in 2.5 mL unit dose format in an ampule and administered via a nebuliser.

## COc1cc2c(cc1OC)-c1c/c(=N\c3c(C)cc(C)cc3C)n(CCNC(N)=O)c(=O)n1CC2 [Ensifentrine]
Week 12, FEV1 at 11.5 to 12 hours following the prior evening dose
  Morning Trough FEV1 Week 12: CFB Least Squares Mean, mL (95% CI): 6.3 (−12.3, 24.9) mL
Week 12, versus placebo
  Morning Trough FEV1 Week 12: Placebo-corrected CFB LS Mean Diff., mL (95% CI): 48.9 (18.3, 79.5) mL
All subgroups
  Improvement in lung function in all subgroups (average FEV1 (AUC)0-12h at Week 12), result in words: All subgroups showed improvement in lung function with ensifentrine that was statistically significant
Week 12
  Morning trough FEV1 at week 12, result in words: statistically significant effect
